{"source": "patent US20260325542A1", "about": "“CANCER TARGETING COMPLEX, AND COMPOSITION COMPRISING SAME FOR PREVENTING OR TREATING CANCER” (EWHA UNIVERSITY - INDUSTRY COLLABORATION FOUNDATION, priority 2023, published 2026)", "key": {"c-Myc": {"tested_on": "c-Myc", "experiment": "Western blot, c-Myc level in 4T1 cells", "format": "cell-based, mouse", "settings": "0 to 10 μM, 24 hours", "experimental": "Accordingly, Western blot analysis was performed to confirm the anticancer ability by evaluating the presence or absence of degradation of BRD4 and other related proteins (e.g., c-Myc and Bcl-2) when cancer cells were treated with the complex for cancer targeting (ECMal-PROTAC) of example 1. The complex for cancer targeting (ECMal-PROTAC) of example 1 and ARV-771 were prepared as samples.\nFirst, 1×10^5 4T1 cells were dispensed into each well of a 6-well culture plate and cultured for 24 hours at 37° C. and 5% carbon dioxide atmosphere. The cell culture medium was supplemented with various concentrations of ARV-771 (0 to 10 μM) or the complex for cancer targeting (ECMal-PROTAC) of example 1 (0 to 10 μM), and cultured at 37° C. for 24 hours. After the culture was completed, the cells were washed 3 times with PBS, and lysed with a lysis buffer containing 1% […]. Cell debris from the recovered lysate was removed by centrifugation at 12,000 rpm for 25 minutes. After recovering the supernatant, the protein amount was measured using a BCA kit. The supernatant was loaded onto a 10% sodium dodecyl sulfate-polyacrylamide gel. Electrophoresis (SDS-PAGE) was performed, followed by blotting onto a polyvinylidene difluoride (PVDF) membrane. […] The immunoreactive bands on the PVDF membrane were analyzed through an ECL (enhanced chemiluminescence) system."}, "BRD4": {"target": "T1, BRD4 (Mus musculus, UniProt Q9ESU6)", "T1 construct": "Western blot after PROTAC (ARV-771 release, VHL recruiting)", "experiment": "Western blot of excised cancer tissue, BRD4", "format": "in vivo", "experimental": "The control group was administered saline (10 mg/kg) once every 3 days for 15 days through the tail vein (total 4 administrations). The comparison group was administered ARV-771 (10 mg/kg) once every 3 days for 15 days through the tail vein (total 4 administrations). The example group was administered ECMal-PROTAC 10 mg/kg (wquiv. to ARV-771) of example 1 once every 3 days for 15 days through the tail vein (total 4 administrations)."}, "liver tissue": {"tested_on": "liver tissue", "experiment": "TUNEL analysis of liver tissue", "format": "in vivo, mouse", "settings": "excised after 15 days"}}, "note": "Entries after “also recorded” stand apart in the source; their conditions may differ.", "data": [{"smiles": "Cc1ncsc1-c1ccc([C@H](C)NC(=O)[C@@H]2C[C@@H](OC(=O)CCCCn3nnc4c3CCC3C(CC4)C3COC(=O)NCCOCCOCCNC(=O)CCN3C(=O)C=CC3=O)CN2C(=O)[C@@H](NC(=O)COCCCOCCNC(=O)C[C@@H]2N=C(c3ccc(Cl)cc3)c3c(sc(C)c3C)-n3c(C)nnc32)C(C)(C)C)cc1", "note": "(some centres unmarked) [ECMal-PROTAC]", "values": [{"measurement": "c-Myc level", "setting": "c-Myc", "value": "reduces the levels; also recorded: reduced expression"}, {"measurement": "BRD4 level in cancer tissue vs control", "setting": "BRD4; Western blot, 10 mg/kg", "value": "much lower levels"}, {"measurement": "BRD4 level in cancer tissue, example group vs comparison group", "setting": "BRD4; Western blot, vs ARV-771 group (so in the source)", "value": "no significant difference"}, {"measurement": "relative expression level of BRD4, fold lower than control group", "setting": "BRD4; cancer tissue, FIG. 32", "value": 7.5, "unit": "times"}, {"measurement": "apoptosis rate in liver tissue vs control (TUNEL)", "setting": "liver tissue", "value": "no significant difference in the apoptosis rate"}]}]}
